Assay results published in patent US20230295142A1, “NOVEL COMPOUNDS AS HISTONE DEACETYLASE 6 INHIBITOR, AND PHARMACEUTICAL COMPOSITION COMPRISING THE SAME” (CHONG KUN DANG PHARMACEUTICAL CORP., priority 2020, published 2023).

Columns and labels:
HDAC1 = HDAC1 (Homo sapiens (Human), UniProt Q13547); assay: HDAC1 enzyme activity inhibition (HDAC1 Fluorimetric Drug Discovery Assay Kit); format: biochemical; conditions: samples at 100, 1000 and 10000 nM; 37° C. 60 minutes
Description: (§1) A HDAC enzyme inhibitory capacity of a test material was measured by using HDAC1 Fluorimetric Drug Discovery Assay Kit (Enzolifesciences: BML-AK511) and HDAC6 human recombinant (Calbiochem: 382180). For a HDAC1 assay, samples were treated at a concentration of 100, 1000 and 10000 nM. For a HDAC6 assay, samples were treated at a concentration of 0.1, 1, 10, 100 and 1000 nM. After the above sample treatment, a reaction was continued at 37° C. for 60 minutes, treated with a developer, and subjected to reaction at 37° C. for 30 minutes, after which fluorescence intensity (Ex 390, Em 460) was measured by using FlexStatin3 (Molecular device).

HDAC6 human recombinant = HDAC6 human recombinant (Homo sapiens (Human), UniProt Q9UBN7); assay: HDAC6 enzyme activity inhibition (fluorimetric, in vitro); format: biochemical; conditions: samples at 0.1, 1, 10, 100 and 1000 nM; 37° C. 60 minutes
HDAC6 human recombinant, sequence (Q9UBN7 whole entry): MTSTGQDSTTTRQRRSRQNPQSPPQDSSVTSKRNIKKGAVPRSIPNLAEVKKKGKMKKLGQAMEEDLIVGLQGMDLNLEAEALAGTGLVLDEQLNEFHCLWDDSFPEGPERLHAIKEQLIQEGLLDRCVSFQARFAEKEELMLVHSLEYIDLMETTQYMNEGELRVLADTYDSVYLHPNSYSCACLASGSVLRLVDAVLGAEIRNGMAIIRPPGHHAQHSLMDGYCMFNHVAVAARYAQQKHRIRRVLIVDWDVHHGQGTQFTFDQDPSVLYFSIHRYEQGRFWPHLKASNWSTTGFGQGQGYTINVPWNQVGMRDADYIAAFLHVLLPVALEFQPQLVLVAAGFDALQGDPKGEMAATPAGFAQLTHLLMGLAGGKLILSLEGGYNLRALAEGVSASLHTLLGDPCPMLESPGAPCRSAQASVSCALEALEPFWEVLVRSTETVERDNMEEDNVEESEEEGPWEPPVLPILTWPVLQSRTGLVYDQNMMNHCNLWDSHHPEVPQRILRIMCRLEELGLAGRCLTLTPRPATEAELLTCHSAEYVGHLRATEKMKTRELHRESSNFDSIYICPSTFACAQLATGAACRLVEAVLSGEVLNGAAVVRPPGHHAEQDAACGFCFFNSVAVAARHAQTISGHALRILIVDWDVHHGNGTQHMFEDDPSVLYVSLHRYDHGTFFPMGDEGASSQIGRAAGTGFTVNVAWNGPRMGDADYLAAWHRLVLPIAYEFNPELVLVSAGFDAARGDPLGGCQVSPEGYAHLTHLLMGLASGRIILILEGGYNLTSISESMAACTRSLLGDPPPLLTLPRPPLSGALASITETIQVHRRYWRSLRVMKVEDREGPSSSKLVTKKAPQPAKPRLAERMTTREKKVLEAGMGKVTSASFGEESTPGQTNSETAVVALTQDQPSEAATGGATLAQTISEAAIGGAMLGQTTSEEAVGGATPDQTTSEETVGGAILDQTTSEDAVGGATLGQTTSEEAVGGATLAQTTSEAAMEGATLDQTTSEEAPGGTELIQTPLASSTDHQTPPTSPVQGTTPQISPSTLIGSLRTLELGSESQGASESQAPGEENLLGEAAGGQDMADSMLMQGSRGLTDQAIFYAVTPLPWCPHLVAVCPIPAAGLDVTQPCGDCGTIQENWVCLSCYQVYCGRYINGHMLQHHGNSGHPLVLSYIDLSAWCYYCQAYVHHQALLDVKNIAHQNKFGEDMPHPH
Description: as §1

HDAC1, sequence (Q13547 whole entry): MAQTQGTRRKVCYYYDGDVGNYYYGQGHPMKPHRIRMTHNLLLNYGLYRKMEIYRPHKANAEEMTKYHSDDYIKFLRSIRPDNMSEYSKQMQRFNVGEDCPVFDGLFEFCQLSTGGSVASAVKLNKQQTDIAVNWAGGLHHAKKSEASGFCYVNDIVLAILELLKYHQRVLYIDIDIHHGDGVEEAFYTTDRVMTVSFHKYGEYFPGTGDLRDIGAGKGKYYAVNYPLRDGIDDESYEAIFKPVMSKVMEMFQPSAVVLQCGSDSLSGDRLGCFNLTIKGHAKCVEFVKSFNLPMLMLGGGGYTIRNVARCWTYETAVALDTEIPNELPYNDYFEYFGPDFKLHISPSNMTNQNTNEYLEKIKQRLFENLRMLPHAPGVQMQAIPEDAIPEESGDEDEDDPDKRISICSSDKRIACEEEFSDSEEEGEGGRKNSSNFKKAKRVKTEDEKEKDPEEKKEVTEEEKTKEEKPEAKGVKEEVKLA

SMILES | IC50 (HDAC1) [nM] | IC50 (HDAC6 human recombinant) [nM]
CC1(C)C(=O)N(c2ccccc2)C(=O)N1Cc1ccc(-c2nnc(C(F)F)o2)cc1F [Compound 1, 1-(4-(5-(difluoromethyl)-1,3,4-oxadiazol-2-yl)-2-fluorobenzyl)-5,5-dimethyl-3-phenylimidazolidin-2,4-dione] | > 10000 | 665
CC1(C)C(=O)N(c2ccccc2)C(=O)N1Cc1ccc(-c2nnc(C(F)(F)F)o2)cc1F [Compound 2, 1-(2-fluoro-4-(5-(trifluoromethyl)-1,3,4-oxadiazol-2-yl)benzyl)-5,5-dimethyl-3-phenylimidazolidin-2,4-dione] | > 10000 | 958
O=C1CN(c2ccccc2)C(=O)N1Cc1ccc(-c2nnc(C(F)F)o2)cc1F [Compound 3, 3-(4-(5-(difluoromethyl)-1,3,4-oxadiazol-2-yl)-2-fluorobenzyl)-1-phenylimidazolidin-2,4-dione] | > 10000 | 219
O=C1CN(c2ccccc2)C(=O)N1Cc1ccc(-c2nnc(C(F)F)o2)cn1 [Compound 4, 3-((5-(5-(difluoromethyl)-1,3,4-oxadiazol-2-yl)pyridin-2-yl)methyl)-1-phenylimidazolidin-2,4-dione] | > 10000 | 99
CC(C)(C)OC(=O)N1CCC2(CC1)C(=O)N(Cc1ccc(-c3nnc(C(F)F)o3)cn1)C(=O)N2c1cccc(F)c1 [Compound 5, tert-butyl 3-((5-(5-(difluoromethyl)-1,3,4-oxadiazol-2-yl)pyridin-2-yl)methyl)-1-(3-fluorophenyl)-2,4-dioxo-1,3,8-triazaspiro[4.5]decan-8-carboxylate] | > 10000 | 206
CN1CCC2(CC1)C(=O)N(Cc1ccc(-c3nnc(C(F)F)o3)cn1)C(=O)N2c1cccc(F)c1 [Compound 6, 3-((5-(5-(difluoromethyl)-1,3,4-oxadiazol-2-yl)pyridin-2-yl)methyl)-1-(3-fluorophenyl)-8-methyl-1,3,8-triazaspiro[4.5]decan-2,4-dione] | > 10000 | 104
O=C1N(Cc2ccc(-c3nnc(C(F)F)o3)cn2)C(=O)C2(CCN(C3COC3)CC2)N1c1cccc(F)c1 [Compound 7, 3-((5-(5-(difluoromethyl)-1,3,4-oxadiazol-2-yl)pyridin-2-yl)methyl)-1-(3-fluorophenyl)-8-(oxetan-3-yl)-1,3,8-triazaspiro[4.5]decan-2,4-dione] | > 10000 | 100
CC(C)N1CCC2(CC1)C(=O)N(Cc1ccc(-c3nnc(C(F)F)o3)cn1)C(=O)N2c1cccc(F)c1 [Compound 8, 3-((5-(5-(difluoromethyl)-1,3,4-oxadiazol-2-yl)pyridin-2-yl)methyl)-1-(3-fluorophenyl)-8-isopropyl-1,3,8-triazaspiro[4.5]decan-2,4-dione] | > 10000 | 99
O=C1CN(c2ccccc2)C(=O)N1Cc1ncc(-c2nnc(C(F)F)o2)cn1 [Compound 9, 3-((5-(5-(difluoromethyl)-1,3,4-oxadiazol-2-yl)pyrimidin-2-yl)methyl)-1-phenylimidazolidin-2,4-dione] | > 10000 | 147
CC1(C)C(=O)N(Cc2ccc(-c3nnc(C(F)F)o3)cn2)C(=O)N1c1cccc(F)c1 [Compound 10, 3-((5-(5-(difluoromethyl)-1,3,4-oxadiazol-2-yl)pyridin-2-yl)methyl)-1-(3-fluorophenyl)-5,5-dimethylimidazolidin-2,4-dione] | > 10000 | 53
CC1(C)C(=O)N(Cc2ccc(-c3nnc(C(F)F)o3)cn2)C(=O)N1c1cccc(Br)c1 [Compound 11, 1-(3-bromophenyl)-3-((5-(5-(difluoromethyl)-1,3,4-oxadiazol-2-yl)pyridin-2-yl)methyl)-5,5-dimethylimidazolidin-2,4-dione] | > 10000 | 56
CC1(C)C(=O)N(Cc2ccc(-c3nnc(C(F)F)o3)cn2)C(=O)N1c1ccc(F)cc1 [Compound 12, 3-((5-(5-(difluoromethyl)-1,3,4-oxadiazol-2-yl)pyridin-2-yl)methyl)-1-(4-fluorophenyl)-5,5-dimethylimidazolidin-2,4-dione] | > 10000 | 60
